According to US20240096447A1, “METHODS OF GENERATING PHENOCOPY SIGNATURES AND USES THEREOF” (Wisconsin Alumni Research Foundation, priority 2022, published 2024):

Columns and labels:
breast cancer patients [1] = assay: Response to neoadjuvant everolimus in a breast cancer cohort (GSE119262), by mTOR phenocopy status; type: in vivo, human; settings: neoadjuvant everolimus followed by surgery
breast cancer patients [2] = assay: Pathologic complete response in the chemoimmunotherapy (pembrolizumab) arm of the I-SPY2 trial, by TP53 loss phenocopy status; type: in vivo, human; settings: pembrolizumab with anthracycline/taxane-based neoadjuvant chemotherapy backbone
From the text: In addition, we sought to identify published cohorts with pre-chemotherapy RNA profiling with pathologic response data. The majority of data we could find was in the setting of breast cancer neoadjuvant chemotherapy, where response could be assessed at the time of surgery. Our dataset evaluating clinical treatment response and the phenocopy signatures in breast cancer included 18 breast cancer cohorts with gene expression data downloaded from the Gene Expression Omnibus (GEO) with the following accession numbers: GSE22093, GSE25055, GSE41998, GSE20194, GSE4779, GSE8465, GSE66399, GSE16446, GSE20271, GSE18864, GSE25065, GSE32646, GSE164458, GSE22226, GSE192341, GSE163882, GSE34138, GSE32603, and one additional publicly available TNBC gene expression cohort^48. Finally, we utilized gene expression and clinical response data from the I-SPY2 trial as an independent clinical validation cohort for our phenocopy signatures and breast cancer neoadjuvant therapy response, also downloaded from GEO (GSE194040).
Each of the breast cancer datasets had annotations for pathologic response (pCR versus no pCR) for each sample. The TP53 phenocopy signature was then applied without modification to pre-treatment samples from each breast cancer study, with normalization/batch correction as above. […]

Row | Molecule | tumors that responded to anti-mTOR therapy (breast cancer patients [1]; pre-treatment non-mTOR phenocopy tumors) | tumors that responded to anti-mTOR therapy (breast cancer patients [1]; pre-treatment samples predicted as mTOR mutation phenocopies) | pCR rate (breast cancer patients [2]; TP53 loss phenocopy samples) | pCR rate (breast cancer patients [2]; non-phenocopy samples)
1 | CO[C@H]1C[C@@H]2CC[C@@H](C)[C@@](O)(O2)C(=O)C(=O)N2CCCC[C@H]2C(=O)O[C@H]([C@H](C)C[C@@H]2CC[C@@H](OCCO)[C@H](OC)C2)CC(=O)[C@H](C)/C=C(\C)[C@@H](O)[C@@H](OC)C(=O)[C@H](C)C[C@H](C)/C=C/C=C/C=C/1C [everolimus] | 75.8% | 100% |  | 
2 | pembrolizumab |  |  | 64% | 28%
